Data from paper PMC10442599 (RSC Advances, 2023).
“Also recorded” adds a separate entry of the source.

What was measured:
Type in all cases: biochemical
[1] = biological target: T1, Recombinant human MAO-A (Homo sapiens, UniProt P21397); experiment: Inhibition of MAO-A; conditions: for remaining activity at 10 µM: read-out: Residual activities at 10 μM (%) MAO-A
T1 sequence (P21397 1-527): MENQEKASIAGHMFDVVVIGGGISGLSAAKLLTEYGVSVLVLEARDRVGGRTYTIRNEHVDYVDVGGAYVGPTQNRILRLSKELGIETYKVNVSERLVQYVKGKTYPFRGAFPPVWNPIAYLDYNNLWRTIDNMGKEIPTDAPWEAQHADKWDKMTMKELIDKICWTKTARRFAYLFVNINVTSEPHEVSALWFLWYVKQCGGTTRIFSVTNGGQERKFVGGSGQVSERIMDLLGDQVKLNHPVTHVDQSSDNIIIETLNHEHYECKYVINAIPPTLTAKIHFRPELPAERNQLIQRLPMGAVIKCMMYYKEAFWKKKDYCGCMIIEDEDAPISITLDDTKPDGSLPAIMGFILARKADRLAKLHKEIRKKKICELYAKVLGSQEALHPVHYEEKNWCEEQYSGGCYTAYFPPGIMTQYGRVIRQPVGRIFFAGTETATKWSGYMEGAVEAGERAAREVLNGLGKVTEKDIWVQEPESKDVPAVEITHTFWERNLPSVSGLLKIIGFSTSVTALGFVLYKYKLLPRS

[2] = biological target: T2, MAO-B (Homo sapiens, UniProt P27338); experiment: Inhibition of MAO-B; conditions: for SI (MAO), selectivity index = IC50 (MAO-A)/IC50(MAO-B): MAO-B over MAO-A; for remaining activity at 10 µM: read-out: Residual activities at 10 μM (%) MAO-B
T2 sequence (P27338 1-520): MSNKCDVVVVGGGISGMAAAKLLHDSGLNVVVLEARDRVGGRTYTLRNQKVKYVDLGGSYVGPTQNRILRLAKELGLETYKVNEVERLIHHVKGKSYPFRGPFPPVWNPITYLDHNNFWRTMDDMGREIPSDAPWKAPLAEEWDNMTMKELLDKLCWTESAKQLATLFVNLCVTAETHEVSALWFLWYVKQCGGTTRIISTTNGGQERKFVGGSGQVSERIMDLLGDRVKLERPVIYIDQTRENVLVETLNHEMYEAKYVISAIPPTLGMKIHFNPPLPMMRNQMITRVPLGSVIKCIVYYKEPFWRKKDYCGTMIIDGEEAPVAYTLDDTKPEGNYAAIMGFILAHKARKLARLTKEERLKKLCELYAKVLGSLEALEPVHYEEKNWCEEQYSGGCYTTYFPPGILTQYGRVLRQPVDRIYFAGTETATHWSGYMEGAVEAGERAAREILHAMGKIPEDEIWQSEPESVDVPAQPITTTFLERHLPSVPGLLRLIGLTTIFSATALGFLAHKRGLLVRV

[3] = test system: AChE; experiment: Residual activity of AChE at 10 μM; conditions: inhibitor 10 μM
[4] = test system: BChE; experiment: Residual activity of BChE at 10 μM; conditions: inhibitor 10 μM
[5] = biological target: T2, MAO-B; experiment: Enzyme kinetics of MAO-B inhibition
[6] = biological target: T2, MAO-B; experiment: Reversibility of MAO-B inhibition by dialysis; conditions: 2-times IC50

## O=C1c2ccccc2NC12CCCC2 [Compound 10a]
[1]
  IC50: 20.8 ± 2.89 µM
  remaining activity at 10 µM: 66.9 ± 2.47%
[2]
  IC50: 15.6 ± 2.33 µM
  SI (MAO), selectivity index = IC50 (MAO-A)/IC50(MAO-B): 1.34
  remaining activity at 10 µM: 57 ± 2.99%
[3]
  Residual activities at 10 μM (%) AChE: 76.29 ± 6.64%
[4]
  Residual activities at 10 μM (%) BChE: 73.90 ± 4.90%

## Cc1ccc2c(c1)C(=O)C1(CCCC1)N2 [Compound 10b]
[1]
  IC50: > 40 µM
  remaining activity at 10 µM: 72.2 ± 3.58%
[2]
  IC50: > 40 µM
  remaining activity at 10 µM: 82.2 ± 9.06%
[3]
  Residual activities at 10 μM (%) AChE: 83.39 ± 1.93%
[4]
  Residual activities at 10 μM (%) BChE: 73.82 ± 7.10%

## Cc1ccc2c(c1)C(=O)C1(CCCC1)N2Cc1ccccc1 [Compound 11b]
[1]
  IC50: > 40 µM
  remaining activity at 10 µM: 79.6 ± 5.03%
[2]
  IC50: 5.99 ± 0.36 µM
  remaining activity at 10 µM: 26.1 ± 2.75%
[3]
  Residual activities at 10 μM (%) AChE: 80.92 ± 5.07%
[4]
  Residual activities at 10 μM (%) BChE: 65.10 ± 0.74%

## O=C1c2cc(Br)ccc2N(Cc2ccccc2)C12CCCC2 [Compound 11d]
[1]
  IC50: 14 ± 0.96 µM
  remaining activity at 10 µM: 62 ± 0.94%
[2]
  IC50: 2.81 ± 0.71 µM
  SI (MAO), selectivity index = IC50 (MAO-A)/IC50(MAO-B): 5.00
  remaining activity at 10 µM: -16.2 ± 2.34%
[3]
  Residual activities at 10 μM (%) AChE: 81.90 ± 1.22%
[4]
  Residual activities at 10 μM (%) BChE: 71.19 ± 4.17%

## O=C1c2ccccc2N(Cc2ccc(Br)cc2)C12CCCC2 [Compound 11f]
[1]
  IC50: 17.2 ± 1.14 µM
  remaining activity at 10 µM: 67.9 ± 6.53%
[2]
  IC50: 1.44 ± 0.21 µM
  SI (MAO), selectivity index = IC50 (MAO-A)/IC50(MAO-B): 11.91
  remaining activity at 10 µM: 5.22 ± 1.06%
[3]
  Residual activities at 10 μM (%) AChE: 68.95 ± 0.39%
[4]
  Residual activities at 10 μM (%) BChE: 72.06 ± 6.88%
[5]
  Ki: 0.51 ± 0.023 µM
[5]; Lineweaver–Burk plot
  Type of MAO-B inhibition: competitive inhibitor; also recorded: competitive inhibition
[6]
  Reversibility of MAO-B inhibition: reversible

## O=C1c2ccccc2N(Cc2ccccc2Br)C12CCCC2 [Compound 11k]
[1]
  IC50: 9.01 ± 0.36 µM
  remaining activity at 10 µM: 41.9 ± 4.56%
[2]
  IC50: 14.3 ± 1.45 µM
  SI (MAO), selectivity index = IC50 (MAO-A)/IC50(MAO-B): 0.63
  remaining activity at 10 µM: 60.2 ± 1.44%
[3]
  Residual activities at 10 μM (%) AChE: 68.03 ± 3.68%
[4]
  Residual activities at 10 μM (%) BChE: 51.41 ± 0.53%
